{"source": "BindingDB's records for doi:10.1021/acs.jmedchem.1c01655", "about": "(University of California San Diego, 2022)", "target": "T1, Carboxy-terminal domain RNA polymerase II polypeptide A small phosphatase 1 (Homo sapiens, UniProt Q9GZU7)", "T1 sequence (Q9GZU7 whole entry)": "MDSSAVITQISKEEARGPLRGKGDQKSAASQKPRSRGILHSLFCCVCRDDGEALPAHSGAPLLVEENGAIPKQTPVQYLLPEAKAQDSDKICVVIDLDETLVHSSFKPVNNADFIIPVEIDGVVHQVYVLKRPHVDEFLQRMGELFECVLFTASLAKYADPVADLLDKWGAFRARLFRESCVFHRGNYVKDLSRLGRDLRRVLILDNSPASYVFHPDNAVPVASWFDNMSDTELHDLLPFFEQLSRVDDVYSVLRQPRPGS", "test": "Inhibition of wild type human SCP1 using pNPP as substrate incubated for 0.5 to 18 hrs followed by substrate addition by absorbance based analysis", "data": [{"compound": "O=C(C1=CC2=C(CCC2)S1(=O)=O)N1CCN(S(=O)(=O)c2ccc(F)cc2)CC1", "values": [{"measurement": "IC50", "result": 220, "unit": "µM"}]}]}
